{"source": "ChEMBL document CHEMBL4017459", "about": "“Synthesis and anti-inflammatory evaluation of N-sulfonyl anthranilic acids via Ir(III)-catalyzed C-H amidation of benzoic acids” (2017)", "format_in_all_cases": "functional", "key": {"RAW264.7 [1]": {"test_system": "RAW264.7", "test": "Anti-inflammatory activity in mouse RAW264.7 cells assessed as inhibition of LPS-induced Il-1beta secretion measured after 24 hrs by Western blot analysis relatively to control"}, "RAW264.7 [2]": {"test_system": "RAW264.7", "test": "Anti-inflammatory activity in mouse RAW264.7 cells assessed as inhibition of LPS-induced COX-2 expression measured after 24 hrs by Western blot analysis relatively to control"}, "RAW264.7 [3]": {"test_system": "RAW264.7", "test": "Potency index, ratio of ibuprofen to test compound for anti-inflammatory activity in mouse RAW264.7 cells assessed as inhibition of LPS-induced IL-beta secretion"}}}
{"smiles": "Cc1ccc(S(=O)(=O)Nc2cccc(NS(=O)(=O)c3ccc(C)cc3)c2C(=O)O)cc1", "values": [{"measurement": "inhibition (INH)", "setting": "RAW264.7 [1]", "result": -21, "unit": "%"}, {"measurement": "inhibition (INH)", "setting": "RAW264.7 [2]", "result": 22, "unit": "%"}]}
{"smiles": "Cc1ccc(S(=O)(=O)Nc2ccc(C)cc2C(=O)O)cc1", "values": [{"measurement": "inhibition (INH)", "setting": "RAW264.7 [1]", "result": 20, "unit": "%"}, {"measurement": "inhibition (INH)", "setting": "RAW264.7 [2]", "result": 49, "unit": "%"}]}
{"smiles": "Cc1cccc(NS(=O)(=O)c2ccc3ccccc3c2)c1C(=O)O", "values": [{"measurement": "inhibition (INH)", "setting": "RAW264.7 [1]", "result": 6, "unit": "%"}, {"measurement": "inhibition (INH)", "setting": "RAW264.7 [2]", "result": 33, "unit": "%"}]}
{"smiles": "Cc1cccc(NS(=O)(=O)c2ccc(Br)cc2)c1C(=O)O", "values": [{"measurement": "inhibition (INH)", "setting": "RAW264.7 [1]", "result": 98, "unit": "%"}, {"measurement": "inhibition (INH)", "setting": "RAW264.7 [2]", "result": 36, "unit": "%"}]}
{"smiles": "Cc1ccc(S(=O)(=O)Nc2cccc(F)c2C(=O)O)cc1", "values": [{"measurement": "inhibition (INH)", "setting": "RAW264.7 [1]", "result": 82, "unit": "%"}, {"measurement": "inhibition (INH)", "setting": "RAW264.7 [2]", "result": 3, "unit": "%"}, {"measurement": "Ratio", "setting": "RAW264.7 [3]", "result": "1.5 - 2.5"}]}
{"smiles": "Cc1cccc(NS(=O)(=O)c2ccc([N+](=O)[O-])cc2)c1C(=O)O", "values": [{"measurement": "inhibition (INH)", "setting": "RAW264.7 [1]", "result": 66, "unit": "%"}, {"measurement": "inhibition (INH)", "setting": "RAW264.7 [2]", "result": 67, "unit": "%"}, {"measurement": "Ratio", "setting": "RAW264.7 [3]", "result": "1.5 - 2.5"}]}
{"smiles": "Cc1ccc(S(=O)(=O)Nc2cccc([N+](=O)[O-])c2C(=O)O)cc1", "values": [{"measurement": "inhibition (INH)", "setting": "RAW264.7 [1]", "result": 81, "unit": "%"}, {"measurement": "inhibition (INH)", "setting": "RAW264.7 [2]", "result": -1, "unit": "%"}, {"measurement": "Ratio", "setting": "RAW264.7 [3]", "result": "1.5 - 2.5"}]}
{"smiles": "Cc1cccc(NS(=O)(=O)c2ccccc2)c1C(=O)O", "values": [{"measurement": "inhibition (INH)", "setting": "RAW264.7 [1]", "result": 52, "unit": "%"}, {"measurement": "inhibition (INH)", "setting": "RAW264.7 [2]", "result": 22, "unit": "%"}]}
{"smiles": "COc1ccc(NS(=O)(=O)c2ccc(C)cc2)c(C(=O)O)c1NS(=O)(=O)c1ccc(C)cc1", "values": [{"measurement": "inhibition (INH)", "setting": "RAW264.7 [1]", "result": -21, "unit": "%"}, {"measurement": "inhibition (INH)", "setting": "RAW264.7 [2]", "result": 34, "unit": "%"}]}
{"smiles": "Cc1ccc(S(=O)(=O)Nc2cccc(Br)c2C(=O)O)cc1", "values": [{"measurement": "inhibition (INH)", "setting": "RAW264.7 [1]", "result": 42, "unit": "%"}, {"measurement": "inhibition (INH)", "setting": "RAW264.7 [2]", "result": 18, "unit": "%"}]}
{"smiles": "COc1cccc(NS(=O)(=O)c2ccc(C)cc2)c1C(=O)O", "values": [{"measurement": "inhibition (INH)", "setting": "RAW264.7 [1]", "result": 66, "unit": "%"}, {"measurement": "inhibition (INH)", "setting": "RAW264.7 [2]", "result": 51, "unit": "%"}, {"measurement": "Ratio", "setting": "RAW264.7 [3]", "result": "1.5 - 2.5"}]}
{"smiles": "Cc1cccc(NS(=O)(=O)c2ccc(C(F)(F)F)cc2)c1C(=O)O", "values": [{"measurement": "inhibition (INH)", "setting": "RAW264.7 [1]", "result": 54, "unit": "%"}, {"measurement": "inhibition (INH)", "setting": "RAW264.7 [2]", "result": 55, "unit": "%"}]}
{"smiles": "Cc1ccc(S(=O)(=O)Nc2ccc3ccccc3c2C(=O)O)cc1", "values": [{"measurement": "inhibition (INH)", "setting": "RAW264.7 [1]", "result": 9, "unit": "%"}, {"measurement": "inhibition (INH)", "setting": "RAW264.7 [2]", "result": 34, "unit": "%"}]}
{"smiles": "Cc1cccc(NS(=O)(=O)c2ccccc2F)c1C(=O)O", "values": [{"measurement": "inhibition (INH)", "setting": "RAW264.7 [1]", "result": 35, "unit": "%"}, {"measurement": "inhibition (INH)", "setting": "RAW264.7 [2]", "result": 42, "unit": "%"}]}
{"smiles": "Cc1ccc(S(=O)(=O)Nc2cc(C)cc(C)c2C(=O)O)cc1", "values": [{"measurement": "inhibition (INH)", "setting": "RAW264.7 [1]", "result": 45, "unit": "%"}, {"measurement": "inhibition (INH)", "setting": "RAW264.7 [2]", "result": 52, "unit": "%"}]}
{"smiles": "COc1ccc(S(=O)(=O)Nc2cccc(C)c2C(=O)O)cc1", "values": [{"measurement": "inhibition (INH)", "setting": "RAW264.7 [1]", "result": 88, "unit": "%"}, {"measurement": "inhibition (INH)", "setting": "RAW264.7 [2]", "result": 51, "unit": "%"}]}
{"smiles": "Cc1ccc(S(=O)(=O)Nc2cccc(Cl)c2C(=O)O)cc1", "values": [{"measurement": "inhibition (INH)", "setting": "RAW264.7 [1]", "result": 45, "unit": "%"}, {"measurement": "inhibition (INH)", "setting": "RAW264.7 [2]", "result": -4, "unit": "%"}]}
{"smiles": "Cc1ccc(S(=O)(=O)Nc2cccc(C(F)(F)F)c2C(=O)O)cc1", "values": [{"measurement": "inhibition (INH)", "setting": "RAW264.7 [1]", "result": 21, "unit": "%"}, {"measurement": "inhibition (INH)", "setting": "RAW264.7 [2]", "result": 69, "unit": "%"}]}
{"smiles": "Cc1ccc(S(=O)(=O)Nc2cccc(C)c2C(=O)O)cc1", "values": [{"measurement": "inhibition (INH)", "setting": "RAW264.7 [1]", "result": 37, "unit": "%"}, {"measurement": "inhibition (INH)", "setting": "RAW264.7 [2]", "result": 72, "unit": "%"}]}
{"smiles": "Cc1ccc(S(=O)(=O)Nc2cc(C)cc(NS(=O)(=O)c3ccc(C)cc3)c2C(=O)O)cc1", "values": [{"measurement": "inhibition (INH)", "setting": "RAW264.7 [1]", "result": 66, "unit": "%"}, {"measurement": "inhibition (INH)", "setting": "RAW264.7 [2]", "result": -8, "unit": "%"}, {"measurement": "Ratio", "setting": "RAW264.7 [3]", "result": "1.5 - 2.5"}]}
{"smiles": "CC(C)Cc1ccc(C(C)C(=O)O)cc1", "note": "(configuration not stated) [IBUPROFEN]", "values": [{"measurement": "inhibition (INH)", "setting": "RAW264.7 [1]", "result": 35, "unit": "%"}, {"measurement": "inhibition (INH)", "setting": "RAW264.7 [2]", "result": 54, "unit": "%"}]}
